In patent US20250295631A1, “NOVEL TREATMENT” (University of Liverpool, priority 2022, published 2025):
Like-named read-outs stand apart in the source and are kept apart here.

Key:
[1] = Protocol: To investigate cross-linker stability 0.2 M BS^3 was prepared in various buffers. The pH was measured using a SevenGO SG2 pH meter with an InLab Ultra-Micro-ISM electrode (Mettler Toldedo, Leicester, UK). Nine carbonate buffer and two phosphate buffer formulations were investigated. All were prepared in deionised H2O. Formulations can be seen in Table 1 below. The pH of BS^3 at concentrations of 0.2 M and 0.035 M (20 mg/ml as per patent US2014/0271897 A1 claim [0358]) in phosphate buffered saline (PBS) were also measured. The pH was measured immediately after addition BS3 and filtration (00:00) then at 30 mins, 1 hour, 2 hours, 3 hours, 4 hours, 24 hours.
BS^3 (bis(sulfosuccinimidyl)suberate, Thermo Scientific Pierce, IL, USA) solutions was prepared to concentrations of 0.2 M in the buffer solution, vortexed for 1 min and then filtered through 0.2 μm filter.

ex vivo porcine corneas = experiment: Ex vivo tensile testing of cross-linked porcine corneas (elastic modulus); design: species or system domestic pig (Sus domesticus)
Protocol: Eyes of the domestic pig (Sus domesticus) are collected from a local abattoir 0-4 hours post-mortem. Eyes are cleaned of excess tissue and fat and washed in PBS containing 200 U penicillin and 0.2 mg/ml streptomycin and 5 μg/ml amphotericin B (Merch Life Science, Dorset, UK). The eyes are stored in a petri dish containing the PBS antibiotic/antimycotic solution, corneas facing up, at 4° C. overnight.
The porcine eyes are removed from 4° C. and allowed to warm to room temperature. One-to-two drops of Minims Proxymetacaine hydrochloride 0.5% w/v (Bosch & Lomb, Surrey, UK) were applied to the cornea for 15 minutes, with additional drops added ever 5 minutes and then 2-3 minutes before treatment. After which a suction ring (E.Janach, Como, Italy) was attached to the cornea (FIG. 1) and 200 μl of BS^3 solution was added inside the ring. Eyes were incubated for 5, 15 or 30 mins at 37° C.; after which the BS^3 solution was aspirated and retained for pH measurement, and eyes were rinsed in PBS then stored, cornea facing down, in a 6-well plate with fresh PBS until tensile measurement.
Suction rings were applied to porcine corneas as in FIG. 1 and 18% ethanol solution was applied for 30 seconds before being adsorbed by a sponge spear. The cornea was then rinsed with PBS. After this the epithelium was removed with a corneal scraper and sponge spear. Once the epithelium was removed 0.1% riboflavin (Vibex Rapid™, Avedro Inc, MA, USA) was applied every 3 mins. Riboflavin was applied for a total of 30 mins for the Dresden protocol and 15 minutes for the Accelerated protocol.
After riboflavin treatment eyes were cross-linked by UVA light using and KXL System (Avedro Inc). UV light was applied at 3 mW/cm^2 for 30 mins for the Dresden protocol and 6 mW/cm^2 for 15 mins for the Accelerated protocol for a total applied energy of 5.4 J/cm^2 for both protocols.
The anterior section of the eye was removed by cutting around the globe 5-10 mm posteriorly from the limbus. The iris and ciliary process were removed from the posterior section of the tissue leaving only sclera and cornea. A strip of tissue was cut using a custom-made replaceable razor blade jig. Tissue thickness and width (determined as the distance between cutting edges) were measured with calipers.
The tissue strip was mounted in the grips of a Univert tensile tester (CellScale, Ontario, Canada) with a 50 N load cell. Tissue was stretched at a rate of 125 μm/s until failure. Data was captured at 1 Hz. Stress-strain curves were plotted and the elastic modulus was determined at a range of strains: 5-10%, 10-15%, 20-25% and 30-35%. Data were trimmed to 3% from the strain at ultimate tensile strain and 6 term polynomial equations we determined from each curve. […] These polynomials represent the stress-stain response of each cornea and were used to create an average stress-strain curve for the samples.
Ex vivo mechanical data were compared by One-way ANOVA and Tukey's post-hoc.

[2] = test system: inflammatory cytokines in rat aqueous humour; conditions: in vivo
Protocol: (§1) Male Wistar rats (300 g) and mixed sex New Zealand rabbits (1.5-3 kg), both specific-antigen free, were ordered from Charles River UK and ENVIGO, respectively. They were allowed a minimum of 7 days acclimatisation prior to procedures. Animals were anaesthetised and proxymetacaine hydrochloride 0.5% w/v was applied to the corneas. For the rats, a 2 cm section of silicone tubing was placed on the cornea whereas for the rabbits the suction ring (as above) was placed on the cornea, and 200 μl of the sterile filtered 0.2 M BS^3 solution was instilled for 15 mins. Following this, eyes were rinsed with saline. Animals were provided with antibiotic/steroid drops (Tobradex, Novartis Pharmaceuticals UK Ltd, London, UK) daily and were monitored for any signs for distress or ocular discomfort.
The animals were euthanised at pre-determined time points (rats at 24 hours and 7 days; rabbits at 3 days post-treatment). Aqueous humour was collected. Rat ocular tissue was collected and fixed in 10% paraformaldehyde for histology. Rabbit the eyes enucleated and prepared for mechanical testing which was conducted the following day and the remaining cornea was fixed. Ocular tissue was also fixed in 10% paraformaldehyde.
Statistical analyses were performed with Prism 9.3.1 (GraphPad Software, San Diego, CA, USA). In vivo data were compared by paired t-tests to contralateral control eyes.

rat corneas = conditions: in vivo
Protocol: as §1
(§2) The animals were euthanised at pre-determined time points (rats at 24 hours and 7 days; rabbits at 3 days post-treatment). Aqueous humour was collected. Rat ocular tissue was collected and fixed in 10% paraformaldehyde for histology. […]
(§3) Corneal thickness and transparency were determined using optical coherence tomography (OCT) (ENVISU R2210, Leica Microsystems, Milton Keynes, UK) before treatment and prior to euthanasia. Corneal transparency was determined by the intensity of the pixels within the cornea minus background intensity from the corneal sections of the OCT images. […]

rabbit corneas = conditions: in vivo
Protocol: as §1, §2, §3

bis(sulfosuccinimidyl)suberate [BS3]
pH by 30 minutes ([1]; 20 mg/ml (0.035 M) BS^3 in PBS (Dulbecco A), formulation of US2014/0271897 A1 [0358]): 5.18
precipitation ([1]; 0.2 M BS^3 in 0.1 M and 0.2 M carbonate buffers, at 24 hours): Precipitation was observed
initial pH after the addition of 0.2 M BS^3 ([1]; 0.2 M BS^3 in 0.5 M carbonate buffers): > 7
pH over the 24 hour testing period ([1]; 0.2 M BS^3 in 0.5 M carbonate:bicarbonate buffer, ratio 5:5): > 6
precipitation ([1]; 0.2 M BS^3 in 0.5 M carbonate:bicarbonate buffer, ratio 5:5, 24 hour testing period): did not have any precipitation
pH over the 24 hour testing period ([1]; 0.2 M BS^3 in 0.5 M carbonate:bicarbonate buffer, ratio 9:1): > 6
precipitation ([1]; 0.2 M BS^3 in 0.5 M carbonate:bicarbonate buffer, ratio 9:1, 24 hour testing period): did not have any precipitation
Percentage Change in Modulus Compared to Control (ex vivo porcine corneas; 20 mg/ml (0.035 M) BS3 in PBS (US2014/0271897 A1 [0358]), strain range 5-10%): −28%
Percentage Change in Modulus Compared to Control (ex vivo porcine corneas; 20 mg/ml (0.035 M) BS3 in PBS (US2014/0271897 A1 [0358]), strain range 10-15%): −10%
Percentage Change in Modulus Compared to Control (ex vivo porcine corneas; 20 mg/ml (0.035 M) BS3 in PBS (US2014/0271897 A1 [0358]), strain range 20-25%): 3%
Percentage Change in Modulus Compared to Control (ex vivo porcine corneas; 20 mg/ml (0.035 M) BS3 in PBS (US2014/0271897 A1 [0358]), strain range 30-35%): 15%
difference in elastic modulus compared to control (ex vivo porcine corneas; 20 mg/ml (0.035 M) BS^3 in PBS, any of the strain ranges, p>0.05): no significant difference
Percentage Change in Modulus Compared to Control (ex vivo porcine corneas; 0.2M BS3, 5 min treatment, strain range 5-10%): 76%
Percentage Change in Modulus Compared to Control (ex vivo porcine corneas; 0.2M BS3, 5 min treatment, strain range 10-15%): 60%
Percentage Change in Modulus Compared to Control (ex vivo porcine corneas; 0.2M BS3, 5 min treatment, strain range 20-25%): 42%
Percentage Change in Modulus Compared to Control (ex vivo porcine corneas; 0.2M BS3, 5 min treatment, strain range 30-35%): 12%
Percentage Change in Modulus Compared to Control (ex vivo porcine corneas; 0.2M BS3, 15 min treatment, strain range 5-10%): 109%
Percentage Change in Modulus Compared to Control (ex vivo porcine corneas; 0.2M BS3, 15 min treatment, strain range 5-10%, listed as BS^3): 109%
Percentage Change in Modulus Compared to Control (ex vivo porcine corneas; 0.2M BS3, 15 min treatment, strain range 10-15%): 68%
Percentage Change in Modulus Compared to Control (ex vivo porcine corneas; 0.2M BS3, 15 min treatment, strain range 10-15%, listed as BS^3): 68%
Percentage Change in Modulus Compared to Control (ex vivo porcine corneas; 0.2M BS3, 15 min treatment, strain range 20-25%): 43%
Percentage Change in Modulus Compared to Control (ex vivo porcine corneas; 0.2M BS3, 15 min treatment, strain range 30-35%): 18%
Percentage Change in Modulus Compared to Control (ex vivo porcine corneas; 0.2M BS3, 15 min treatment, strain range 30-35%, listed as BS^3): 18%
Percentage Change in Modulus Compared to Control (ex vivo porcine corneas; 0.2M BS3, 30 min treatment, strain range 5-10%): 56%
Percentage Change in Modulus Compared to Control (ex vivo porcine corneas; 0.2M BS3, 30 min treatment, strain range 10-15%): 54%
Percentage Change in Modulus Compared to Control (ex vivo porcine corneas; 0.2M BS3, 30 min treatment, strain range 20-25%): 45%
Percentage Change in Modulus Compared to Control (ex vivo porcine corneas; 0.2M BS3, 30 min treatment, strain range 30-35%): 22%
stiffness (elastic modulus) (ex vivo porcine corneas; 0.2 M BS^3 in 0.5 M carbonate:bicarbonate 9:1, 5 min treatment, strain range 5-10%): 5.43±2.23 MPa
stiffness (elastic modulus) (ex vivo porcine corneas; 0.2 M BS^3 in 0.5 M carbonate:bicarbonate 9:1, 15 min treatment, strain range 5-10%): 6.47±2.23 MPa
stiffness (elastic modulus) (ex vivo porcine corneas; 0.2 M BS^3 in 0.5 M carbonate:bicarbonate 9:1, 30 min treatment, strain range 5-10%): 4.84±2.02 MPa
change in IL-2 in aqueous humour, treated vs control eyes [2]: −0.76 fold
change in IL-4 in aqueous humour, treated vs control eyes [2]: −0.63 fold
reductions in IL-2 and IL-4 in aqueous humour [2]: resolved by day 7
reduction in corneal thickness in the treated eye vs contralateral control (rat corneas): 42±29 μm
reduction in corneal thickness in the treated eyes vs contralateral control (rabbit corneas): 100±20 μm
